Results as given in patent US20210236523A1, “P[…] FOR HEADACHE DISORDERS” (priority 2020, published 2021).

How the values were obtained:
[1] = system: patients with migraine headache; experiment: Placebo-controlled cross-over study of a single low oral dose of psilocybin in migraine headache: headache diary burden; type: in vivo, human
Text: The purpose of this exploratory study was to investigate the effects of a single low dose of psilocybin in patients with migraine headache in a controlled experiment. Basic information was gathered to assist in the development of future studies considering the effects and mechanism of action of 5-HT2A receptor compounds in migraine and other headache disorders.
This study was registered on clinicaltrials.gov (NCT03341689) with approvals from the Human Studies Subcommittee of Veterans Affairs Connecticut Healthcare System (VACHS) and the Human Investigations Committee of Yale University School of Medicine. The study was conducted under an approved Investigational New Drug application (#124,874) with the US Food & Drug Administration, under a Schedule 1 license (author DCD). Psilocybin was provided by author NC from the University of Wisconsin. Weight-based capsules of psilocybin 0.143 mg/kg and matching placebo [microcrystalline cellulose; obtained from Fagron (St. Paul, Minn.)] were compounded into identical blue gel capsules by the VACHS Investigational Research Pharmacy for each subject.
Adults (age 21 to 65 years, inclusive) free from serious medical or psychiatric disease with migraine headache as defined by the International Classification of Headache Disorders III-beta and with a frequency of migraine attacks of 2 per week or more were eligible to participate in this study. Among the excluded medical conditions were uncontrolled hypertension, coronary artery disease, cardiac arrhythmia, cerebrovascular disease, and serious central or peripheral nervous system or spinal disease (e.g., multiple sclerosis, amyotrophic lateral sclerosis). Psychotic or manic disorders in the subject or a first degree relative was also excluded, as were substance abuse within the past 3 months and any prior serious adverse event with psilocybin, LSD, or related compounds (i.e., mescaline). Prior exposure to psilocybin or related compounds through recreational or medicinal use or through participation in other research studies was not excluded, although any use in the past 3 months was prohibited. Alcohol use within one week of the first experimental test day was prohibited. Caffeine and nicotine were not restricted. Subjects were required to be free from serotonergic antidepressants (selective serotonin reuptake inhibitors, serotonin and norepinephrine reuptake inhibitors, monoamine oxidase inhibitors, tricyclics) for at least 6 weeks, serotonergic antiemetics (i.e., ondansetron) for at least 2 weeks, and vasoconstrictive medications (i.e., pseudoephedrine) for at least 5 half-lives of said medication. Triptans were permitted, but no more than twice weekly and not within 5 half-lives of said triptan before each test day and not within 5 half-lives of psilocybin (15 hours) after each test day.
Subjects were instructed to maintain a headache diary starting two weeks before the first experimental session until two weeks after the second experimental session. Subjects documented every headache attack, migraine (with associated migrainous symptoms) or otherwise (without associated migrainous symptoms; not counted as a migraine attack). Associated symptoms—photophobia (light sensitivity), phonophobia (sound sensitivity), nausea/vomiting—as well as attack-related functional impairment were documented using a 0-3 visual analog scale (VAS): 0=none, 1=mild, 2-moderate, 3=severe. The abortive medications taken and their effects were also recorded in the diary. Only the 14 days prior to the first experimental session (baseline) and the 14 days after each experimental session (inclusive) were counted in the final analysis.
Subjects completed two experimental sessions, separated by at least 14 days, which were conducted in the Neurobiological Studies Unit (NSU) at VACHS. Subjects reported to the NSU at 08:00; urine drug, urine pregnancy (when applicable), and alcohol breathalyzer tests were required to be negative in order to proceed. […]

[2] = system: patients with migraine headache; experiment: Migraine study: acute physiologic and psychotropic effects and adverse events of drug administration; type: in vivo, human
Method: Blood pressure, heart rate, and peripheral oxygenation were measured at baseline and throughout experimental sessions. Acute headache pain and associated symptoms (if present) and drug effects (overall, anxiety/fear, sleepiness/sedation, nausea, joy/intense happiness, peace/harmony) were self-reported on a 0-3 scale (0=none, 1=minimal, 2=moderate, 3=definite) at baseline and throughout experimental sessions. Psychedelic effects were self-reported at the end of experimental sessions using the validated 5-Dimensional Altered States of Consciousness (5D-ASC) scale. Subjects were discharged from the NSU at 6 hours after capsule ingestion or once physiological and psychological drug effects had resolved. Only one subject remained in the NSU for an additional 60 minutes until drug effects resolved. Subjects were not allowed to drive themselves after experimental sessions. Emergency contacts, including 24-hour/7-day psychiatry services, were provided to all subjects.
Telephone follow-up was performed the day after and weekly for two weeks after each experimental session, and at 2 and 3 months after the second experimental session.
Statistical analyses were performed using SAS, version 9.4 (SAS Institute Inc., Cary, N.C.) and figures were produced with GraphPad Prism (GraphPad Software Inc., La Jolla, Calif.). All statistical tests were two-sided with an overall pre-hypothesis alpha threshold of 0.05. Measures of error are shown as standard error about the mean (SEM). The primary clinical outcome measure was change in weekly migraine days (WMD) from baseline. This and the secondary measures of migraine burden—changes from baseline in weekly migraine attacks (WMA), pain severity, light sensitivity severity, sound sensitivity severity, nausea/vomiting severity, attack-related functional impairment, and weekly migraine abortive use—were calculated and compared via paired t-test. The time to the next two migraine attacks were also compared between placebo and psilocybin via paired t test. Acute effects of drug administration on mean arterial pressure (MAP), heart rate, peripheral oxygenation, and general drug effects were analyzed via 2-way repeated measures ANOVA with post-hoc Fisher least significant difference (LSD) test (when the interaction existed). Psychotropic effects as measured by the 5D-ASC scale were calculated as a percent of the total possible score 21, 22, as well as the percent possible score of each of the scale's five dimensions—oceanic boundlessness (OBN), dread of ego dissolution (DED), visionary restructuralization (VRS), acoustic alterations (AUA), and vigilance reduction (VIR). Percent possible scores were then compared between placebo and psilocybin via paired t-test. In order to test the assumption that psychotropic effects are unrelated to effects on migraine activity, the maximum rating of general drug effects and the percent total possible 5D-ASC scale score were correlated to the percent change in WMD after psilocybin administration. The number of adverse events (AEs) were compared between placebo and psilocybin using inference on proportions.

[3] = of 10 subjects, 14 days after single oral dose 0.143 mg/kg
[4] = single oral dose 0.143 mg/kg, two weeks after dosing

CN(C)CCc1c[nH]c2cccc(OP(=O)(O)O)c12 [psilocybin, 3-(2-dimethylaminoethyl)-1H-indol-4-yl] dihydrogen phosphate]
change from baseline in attack-related functional impairment ([1]; 0-3 VAS, single oral dose 0.143 mg/kg, mean (SEM), P=0.0235 vs placebo): −0.96 (0.26) | subjects with no migraine attacks after administration [1, 3]: 2 subjects | subjects with only one migraine attack after administration [1, 3]: 2 subjects | change in weekly migraine days (WMD) from baseline ([1]; single oral dose 0.143 mg/kg, 14 days after dosing, mean (SEM), 10 subjects, P=0.0027 vs placebo): −1.65 (0.39) days/week | time to the second migraine attack after drug administration ([1]; single oral dose 0.143 mg/kg, mean (SEM), 15 days used when no attack, P=0.0119 vs placebo): 10.30 (1.61) days | time to the first migraine attack after drug administration ([1]; single oral dose 0.143 mg/kg, mean (SEM), 15 days used when no attack, P=0.0554 vs placebo): 6.30 (1.88) days | change from baseline in weekly migraine attacks (WMA) ([1]; single oral dose 0.143 mg/kg, mean (SEM), P=0.0039 vs placebo): −1.40 (0.36) attacks/week | change from baseline in pain severity ([1]; single oral dose 0.143 mg/kg, mean (SEM), P=0.0109 vs placebo): −0.70 (0.16) | change from baseline in weekly migraine abortive use ([1]; single oral dose 0.143 mg/kg, mean (SEM), P=0.0140 vs placebo): −0.65 (0.21) abortives/week | percentage of subjects who had 25% reduction in WMD [1, 4]: 80% | percentage of subjects who had 50% reduction in WMD [1, 4]: 50% | percentage of subjects who had 75% reduction in WMD [1, 4]: 30% | maximum increase in mean arterial pressure (MAP) over placebo ([2]; at 1.5 hours after capsule ingestion, 0.143 mg/kg oral, mean (SEM)): 12.2 (4.7) mmHg | tingling/paresthesia, cold/shivering, dry mouth, and acute migraine reported ([2]; during experimental session, 0.143 mg/kg oral): one subject each | lightheadedness and generalized tension/sore muscles, numbers vs placebo ([2]; during experimental sessions): not significant | drug x time interaction on heart rate or peripheral oxygenation ([2]; during experimental sessions, 0.143 mg/kg oral): no significant interactions | 5D-ASC scale, percent possible score for the total scale score ([2]; end of experimental test day, 0.143 mg/kg oral, mean (SEM), P=0.0263 vs placebo): 19.35% | tension/sore muscles, general headache attack, and migraine attack vs placebo ([2]; in the 24 hours following the start of experimental sessions): no significant differences | serious or unexpected adverse events ([2]; migraine study, single oral dose 0.143 mg/kg): no serious or unexpected AEs | MAP vs placebo (post-hoc Fisher LSD) ([2]; starting at 45 minutes until 4 hours after capsule ingestion, 0.143 mg/kg oral): significant increase
